According to patent publication US20140356293A1, “FLUORESCENT COMPOSITIONS WITH ENHANCED FLUORESCENCE AND METHODS BASED THEREON” (The Research Foundation of the State University o New York, priority 2012, published 2014):
Where “and” joins values, the source holds several entries; their conditions need not be identical. Equal values may be shown once. Read-outs that look alike come from different tables or passages of the source.

Assays:
[1] = Relative fluorescence intensity of ICG formulations in Petri dishes, NIRF imaging system; format: physicochemical; details: for maximum fluorescent intensity: 5 μg/ml ICG
Protocol: Real-time near-infrared fluorescent (NIRF) imaging was accomplished using a NIRF imaging system. The ring light was coupled to a tungsten halogen source filtered with a Chroma excitation filter (775 nm). The Navitar Zoom 7000 lens was fitted with a Chroma emission filter (845 nm). Images were captured with a Qimaging Retiga camera. Petri dishes (35 mm diameter) were positioned in the imaging system that contained 2 ml of a sample of an enhanced fluorescent composition comprising ICG. This system was used in the investigations of ICG fluorescence enhancement described in this example. Excitation light was delivered to the field of interest using a fiber optic ring light coupled to a tungsten halogen source (Illumination Technologies, Inc. IT 9596-ER) filtered with a 775 nm bandpass filter (Chroma Technologies). A Navitar Zoom 7000 Lens was fitted on a Qimaging Retiga EXi cooled CCD camera.
Indocyanine Green (ICG) stock solutions were prepared by adding 10 ml of diluent to a 25 mg vial of IC Green (Akorn Incorporated). Diluents were water (supplied by the manufacturer), ethanol, or dimethyl sulfoxide (DMSO).
Milk solutions were prepared by dissolving Instant Nonfat Dry Milk (Nestle Carnation) in water at various concentrations up to 30% weight to volume
To prepare ICG-based enhanced fluorescent compositions, ICG stock solutions were added to achieve concentrations up to 250 μg/ml. Relative fluorescence intensity of various formulations was measured in 35 mm circular Petri dishes containing 2 ml. A floating toothpick provided a focusing target.
Intralipid formulations were prepared from Intralipid 20% (Fresenius Kabi), which is a sterile non-pyrogenic fat emulsion prepared for intravenous administration for parenteral nutrition. Intralipid is also a vehicle for intravenous (i.v.) delivery of propofol, and is used as an antidote for acute local anesthetic toxicity. It is a white opaque liquid containing 20% soy bean oil, egg phospholipids, glycerin, and water. ICG stock solutions were added to achieve a range of concentrations of ICG up to 250 μg/ml in the enhanced fluorescent composition.
Stock aqueous ICG solution was diluted into 10, 20, and 30% milk to achieve 1, 5, 10, and 20 μg/ml final concentrations. Fluorescent images of 2 ml of each preparation in 35 mm Petri dishes were acquired using QCapture and quantified using ImageJ.
[…] […] The ICG in DMSO (“ICG/DMSO”) stock solution was diluted into Enfamil and fluorescence intensity measured.
Intralipid is milk-like in its appearance and the major ingredient is 20% soy bean oil. Because Intralipid is approved for human intravenous use, a series of diluted solutions was prepared from the ICG/DMSO stock solution.
In the work summarized in FIG. 9, solutions of ICG were prepared in DMSO, water, or ethanol at 2.5 mg/ml and then diluted to the indicated concentrations across the top of the figure in the diluents listed down the left side. The DMSO and ethanol diluents were diluted with water. Two ml of each solution was transferred to a Petri dish and imaged as described herein in an NIRF imaging system. […] Also imaged were the same ICG concentrations in 5% ethanol and water. […] The use of ethanol and DMSO in pharmaceuticals is limited by the toxicity of these compounds.

[2] = Stability of ICG fluorescence (storage of stock solutions; constant illumination); format: physicochemical
Protocol: A vial of ICG containing 2.5 mg of ICG was dissolved into 10 ml of DMSO. […] Aqueous solutions fade rapidly. The ICG in DMSO (“ICG/DMSO”) stock solution was diluted into Enfamil and fluorescence intensity measured. […] The DMSO concentration at the peak fluorescence was 0.3%. Thus enhancement of fluorescence intensity was similar to that observed with use of reconstituted nonfat dry milk.
With respect to FIG. 12, a solution of ICG in Enfamil (8 μg/ml) in a Petri dish was positioned in the imaging system. With constant illumination the fluorescence image was captured every 10 seconds for 22 minutes.

[3] = Aqueous ICG preparation used to image the urinary tract of rats; format: physicochemical; details: aqueous solution 2.5 mg/ml diluted
Protocol: ICG used to image the urinary tract of rats was prepared according to package insert instructions (aqueous solution 2.5 mg/ml) and diluted to 10 μg/ml to achieve peak fluorescence. It was observed that the fluorescence of these preparations was not as intense as that achieved when ICG was injected intravenously and diluted into the blood.

[4] = cited from earlier work
[5] = in vivo; cited from earlier work

maximum fluorescent intensity ([1]; 10% milk, arbitrary units of integrated density): about 950000 IntDen
maximum fluorescent intensity ([1]; 20% milk): about 1000000 IntDen
maximum fluorescent intensity ([1]; 30% milk): about 1150000 IntDen
Dependence of fluorescence on milk concentration ([1]; 10, 20, 30% milk): increased with milk concentration
Fluorescence intensity versus ICG concentration ([1]; 25% DMSO in water, FIG. 9): increased from 1 to 100 μg/ml
ICG concentration at which imaging system was fully saturated ([1]; 100% DMSO, FIG. 9): 12.5 µg/mL
ICG concentration at peak fluorescence ([1]; ICG in DMSO diluted into Enfamil, Example 2, FIG. 10): around 8 μg/ml
ICG concentration at peak fluorescence ([1]; ICG in DMSO diluted into Intralipid, exposure time reduced from 90 to 70 ms, Example 2, FIG. 10): 8 µg/mL
ICG concentration at peak fluorescence ([1]; ICG/DMSO stock (2.5 mg/ml) diluted into Enfamil, final DMSO 0.3%, Example 1, FIG. 5): 7.8 µg/mL
ICG concentration at peak fluorescence ([1]; aqueous ICG stock diluted into 10, 20 and 30% reconstituted nonfat dry milk, 1, 5, 10, 20 μg/ml tested): 5 µg/mL
ICG concentration at which quenching occurred ([1]; in 10, 20 and 30% reconstituted dry milk): ≥ 10 µg/mL
ICG concentration at which fluorescence decreased (quenched) ([1]; in Enfamil, FIG. 9): 50 µg/mL and 100 µg/mL
Fluorescence of ICG diluted into water or saline ([1]; same imaging conditions as milk preparations): no detectable fluorescence
Persistence of fluorescence of aqueous solutions [2]: fade rapidly
ICG concentration to achieve peak fluorescence [3]: 10 µg/mL
Structure (SMILES): CC1(C)C(/C=C/C=C/C=C/C=C2\N(CCCCS(=O)(=O)O)c3ccc4ccccc4c3C2(C)C)=[N+](CCCCS(=O)(=O)[O-])c2ccc3ccccc3c21 [ICG, Indocyanine green]
Fluorescence intensity versus ICG concentration ([1]; 100% ethanol, FIG. 9): lower than in DMSO but increased up to 100 μg/ml
Maximum fluorescence wavelength ([4]; in blood): approximately 830 nm
maximum absorption ([4]; in plasma at low concentrations): ~800 nm
Maximum fluorescence wavelength ([4]; in water): approximately 810 nm
Route of excretion [5]: excreted exclusively in the bile
